Reference: US20120035165A1, “Use of fungicidal compound compositions for controlling certain rust fungi” (Bayer CropScience AG, priority 2008, published 2012)

Test system: Phakopsora pachyrhizi
Test: Phakopsora test (soybeans)/protective
Type: in vivo, Phakopsora pachyrhizi on soybeans
Settings: protective spray on young soybean plants, inoculated 1 day after spraying, evaluated 10 days after inoculation
Protocol: Phakopsora Test (Soybeans)/Protective Solvent: 28.5 parts by weight of acetone Emulsifier: 1.5 parts by weight of polyoxyethylene alkyl phenyl ether To produce a suitable preparation of active compound, 1 part by weight of active compound or active compound combination is mixed with the stated amounts of solvent and emulsifier, and the concentrate is diluted with water to the desired concentration. To test for protective activity, young plants are sprayed with the preparation of active compound or active compound combination at the stated rate of application. After the spray coating has dried on, the plants are placed in a greenhouse at a temperature of approximately 23° C. and a relative atmospheric humidity of approximately 70%. 1 day after spraying, the plants are inoculated with an aqueous spore suspension of the causal agent of soybean rust (Phakopsora pachyrhizi). The plants are then placed in a greenhouse at approximately 20° C. and a relative atmospheric humidity of approximately 80%. The test is evaluated 10 days after the inoculation. 0% means an efficacy which corresponds to that of the control, while an efficacy of 100% means that no disease is observed.

SMILES: Cn1cc(C(=O)Nc2ccc(F)cc2-c2ccc(Cl)c(Cl)c2)c(C(F)F)n1 [(I-2) Bixafen, N-(3′,4′-dichloro-5-fluoro-1,1′-biphenyl-2-yl)-3-(difluoromethyl)-1-methyl-1H-pyrazole-4-carboxamide]
- Efficacy in % (rate of application 10 ppm): 50%

SMILES: OC(Cc1ccccc1Cl)(Cn1nc[nH]c1=S)C1(Cl)CC1 (centres unmarked) [(III-1) Prothioconazole, Prothioconazole]
- Efficacy in % (rate of application 0.5 ppm): 50%
